pIC50: −log10 of the molar value.
What was measured:
[1] = tested on: Plasmodium berghei; assay: Antiplasmodial activity against GFP-transfected Plasmodium berghei ANKA infected in NMRI mouse assessed as reduction in parasitaemia at 50 mg/kg/day, ip for 4 days measured on 24 hrs after last dose by FACS analysis; type: functional; parameters: scale not given: the % may be the effect or the level left
[2] = Selectivity index, ratio of IC50 for rat L6 cells to IC50 for chloroquine sensitive Plasmodium falciparum NF54; type: toxicity; conditions: L6 cells versus Plasmodium falciparum NF54, read-out: Ratio IC50
[3] = tested on: Plasmodium berghei; assay: Antiplasmodial activity against GFP-transfected Plasmodium berghei ANKA infected in NMRI mouse assessed as reduction in parasitaemia at 100 mg/kg/day, po for 4 days measured on 24 hrs after last dose by FACS analysis; type: functional; parameters: scale not given: the % may be the effect or the level left
[4] = tested on: Plasmodium falciparum; assay: Antiplasmodial activity against chloroquine sensitive Plasmodium falciparum NF54 assessed as reduction in [3H]-hypoxanthine incorporation incubated for 48 hrs by liquid scintillation counting method; type: functional, organism-based
[5] = tested on: Plasmodium berghei; assay: Antiplasmodial activity against GFP-transfected Plasmodium berghei ANKA infected in NMRI mouse assessed as mouse survival at 50 mg/kg/day, po for 4 days measured up to 30 days; type: functional
[6] = tested on: Plasmodium berghei; assay: Antiplasmodial activity against GFP-transfected Plasmodium berghei ANKA infected in NMRI mouse assessed as mouse survival at 50 mg/kg/day, ip for 4 days measured up to 30 days; type: functional
[7] = tested on: L6; assay: Cytotoxicity in rat L6 cells assessed as reduction in cell viability incubated for 72 hrs by alamar blue dye based assay; conditions: L6, 72 h
[8] = Selectivity index, ratio of IC50 for rat L6 cells to IC50 for chloroquine and pyrimethamine resistant Plasmodium falciparum K1; type: toxicity; conditions: L6 cells versus Plasmodium falciparum K1, read-out: Ratio IC50
[9] = tested on: Plasmodium falciparum; assay: Antiplasmodial activity against chloroquine and pyrimethamine resistant Plasmodium falciparum K1 assessed as reduction in [3H]-hypoxanthine incorporation incubated for 48 hrs by liquid scintillation counting method; type: functional, organism-based

Structure (SMILES): C[C@H]1[C@H](OC(=O)CCC(=O)NCCCN(CCCCN(CCCNC(=O)CCC(=O)O[C@@H]2O[C@@H]3O[C@@]4(C)CC[C@H]5[C@H](C)CC[C@@H]([C@H]2C)[C@@]35OO4)C(=O)OC(C)(C)C)C(=O)OC(C)(C)C)O[C@@H]2O[C@@]3(C)CC[C@H]4[C@H](C)CC[C@@H]1[C@@]24OO3
- Activity [1]: 99.8%
- selectivity ratio [2]: 30200
- Activity [3]: 95.7%
- pIC50 [4]: 9.40
- Survival [5]: 16 to 30 days
- Survival [6]: 30 days
- pIC50 [7]: 4.92

Structure (SMILES): CC(C)(C)OC(=O)N(CCCCCCN(CCCNC(=O)C1CCC2(CC1)OOC1(O2)C2CC3CC(C2)CC1C3)C(=O)OC(C)(C)C)CCCNC(=O)C1CCC2(CC1)OOC1(O2)C2CC3CC(C2)CC1C3 (centres undefined)
- selectivity ratio [8]: 10800
- Activity [1]: 79.4%
- pIC50 [4]: 7.68
- Survival [6]: 6.7 days
- pIC50 [7]: 4.23
- pIC50 [9]: 8.30

Structure (SMILES): CC(C)(C)OC(=O)N(CCCCN(CCCNC(=O)C1CCC2(CC1)OOC1(O2)C2CC3CC(C2)CC1C3)C(=O)OC(C)(C)C)CCCNC(=O)C1CCC2(CC1)OOC1(O2)C2CC3CC(C2)CC1C3 (centres undefined)
- selectivity ratio [8]: 7160
- Activity [1]: 96.4%
- pIC50 [4]: 8.29
- Survival [6]: 9.3 days
- pIC50 [7]: 4.18
- pIC50 [9]: 8.04

Structure (SMILES): CC(C)(C)OC(=O)N(CCCCCCCN(CCCNC(=O)C1CCC2(CC1)OOC1(O2)C2CC3CC(C2)CC1C3)C(=O)OC(C)(C)C)CCCNC(=O)C1CCC2(CC1)OOC1(O2)C2CC3CC(C2)CC1C3 (centres undefined)
- selectivity ratio [8]: > 3020
- Activity [1]: 94.7%
- pIC50 [4]: 7.34
- Survival [6]: 7.3 days
- pIC50 [7]: < 4.00
- pIC50 [9]: 7.49

Structure (SMILES): C[C@H]1[C@H](OC(=O)CCC(=O)NCCCN(CCCCN(CCCNC(=O)CCC(=O)O[C@@H]2O[C@@H]3O[C@@]4(C)CC[C@H]5[C@H](C)CC[C@@H]([C@H]2C)[C@@]35OO4)C(=O)CCC(=O)O[C@@H]2O[C@@H]3O[C@@]4(C)CC[C@H]5[C@H](C)CC[C@@H]([C@H]2C)[C@@]35OO4)C(=O)CCC(=O)O[C@@H]2O[C@@H]3O[C@@]4(C)CC[C@H]5[C@H](C)CC[C@@H]([C@H]2C)[C@@]35OO4)O[C@@H]2O[C@@]3(C)CC[C@H]4[C@H](C)CC[C@@H]1[C@@]24OO3
- Activity [1]: 95.5%
- selectivity ratio [2]: 37300
- pIC50 [4]: 9.52
- Survival [6]: 30 days
- pIC50 [7]: 4.95

Structure (SMILES): C[C@H]1[C@H](OC(=O)CCC(=O)O)O[C@@H]2O[C@@]3(C)CC[C@H]4[C@H](C)CC[C@@H]1[C@@]24OO3 [ARTESUNATE]
- selectivity ratio [8]: 13300
- pIC50 [4]: 8.59
- pIC50 [7]: 5.18
- pIC50 [9]: 9.30

From ChEMBL document CHEMBL4190368, “Synthesis and antimalarial evaluation of artesunate-polyamine and trioxolane-polyamine conjugates” (Eur J Med Chem, 2017)
